Experimental data from patent US20260275319A1, “ARCHAEAL PEPTIDE RECOMBINASE – A NOVEL PEPTIDE LIGATING ENZYME” (MAX-PLANCK-GESELLSCHAFT ZUR FÖRDERUNG DER WISSENSCHAFTEN …, priority 2019, published 2026).

Legend:
[1] = target: M. jannaschii Adriase^S1A; conditions: MST, 25° C., 10 nM FITC peptide, three independent measurements
Description: MST measurements were performed with a Monolith NT.115 (Nanotemper), using various MST power and laser intensity settings to test the general validity of the obtained data. The final results were obtained in three independent experiments and measured at a temperature of 25° C., using MST power 80% and laser intensity 40%.
In a second set of MST experiments, a more detailed analysis of the binding motif (FIG. 18A-F and table in FIG. 5B) was performed using synthetic peptides (Genscript) based on the M. jannaschii MtrA sequence. […] For the MST measurements, 10 nM of these peptides were mixed with a serial dilution of M. jannaschii Adriase^S1A and the experiment was otherwise performed as described for the M. jannaschii MtrA^Δ194-245-Adriase^S1A and the M. jannaschii MtrA^Δ174-245 Adriase^S1A interactions, above.

M. mazei Adriase = test: Ligation motif analysis with primary and secondary substrates; format: biochemical; conditions: 25 μM substrates, 400× molar excess over Adriase, 50° C.

Sequence of M. jannaschii Adriase^S1A (as listed by the source): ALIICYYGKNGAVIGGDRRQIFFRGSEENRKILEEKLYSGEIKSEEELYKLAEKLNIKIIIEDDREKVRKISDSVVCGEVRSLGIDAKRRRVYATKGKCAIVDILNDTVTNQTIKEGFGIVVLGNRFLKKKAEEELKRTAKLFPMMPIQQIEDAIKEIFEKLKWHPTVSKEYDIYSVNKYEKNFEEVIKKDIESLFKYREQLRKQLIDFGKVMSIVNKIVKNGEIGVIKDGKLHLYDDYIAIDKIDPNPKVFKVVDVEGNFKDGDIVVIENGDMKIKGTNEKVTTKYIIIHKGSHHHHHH

KECLSKDPGAIDEDPFIIELKFITC [(5)KDPGA(10)]
KD [1]: as tightly as M. jannaschii MtrA^Δ194-245

PGAFDADP (Methanosarcina mazei Go1; M. mazei PGA(5); listed as Methanosarcina mazei) [M. mazei MtrA-derived secondary substrate peptide]
Adriase activity with substrate (M. mazei Adriase): No Adriase activity
